The experiment addresses EGFR (UniProt P00533).

Converted amounts (≈) assume the structure as drawn.

EGFR, sequence (P00533 whole entry, looked up): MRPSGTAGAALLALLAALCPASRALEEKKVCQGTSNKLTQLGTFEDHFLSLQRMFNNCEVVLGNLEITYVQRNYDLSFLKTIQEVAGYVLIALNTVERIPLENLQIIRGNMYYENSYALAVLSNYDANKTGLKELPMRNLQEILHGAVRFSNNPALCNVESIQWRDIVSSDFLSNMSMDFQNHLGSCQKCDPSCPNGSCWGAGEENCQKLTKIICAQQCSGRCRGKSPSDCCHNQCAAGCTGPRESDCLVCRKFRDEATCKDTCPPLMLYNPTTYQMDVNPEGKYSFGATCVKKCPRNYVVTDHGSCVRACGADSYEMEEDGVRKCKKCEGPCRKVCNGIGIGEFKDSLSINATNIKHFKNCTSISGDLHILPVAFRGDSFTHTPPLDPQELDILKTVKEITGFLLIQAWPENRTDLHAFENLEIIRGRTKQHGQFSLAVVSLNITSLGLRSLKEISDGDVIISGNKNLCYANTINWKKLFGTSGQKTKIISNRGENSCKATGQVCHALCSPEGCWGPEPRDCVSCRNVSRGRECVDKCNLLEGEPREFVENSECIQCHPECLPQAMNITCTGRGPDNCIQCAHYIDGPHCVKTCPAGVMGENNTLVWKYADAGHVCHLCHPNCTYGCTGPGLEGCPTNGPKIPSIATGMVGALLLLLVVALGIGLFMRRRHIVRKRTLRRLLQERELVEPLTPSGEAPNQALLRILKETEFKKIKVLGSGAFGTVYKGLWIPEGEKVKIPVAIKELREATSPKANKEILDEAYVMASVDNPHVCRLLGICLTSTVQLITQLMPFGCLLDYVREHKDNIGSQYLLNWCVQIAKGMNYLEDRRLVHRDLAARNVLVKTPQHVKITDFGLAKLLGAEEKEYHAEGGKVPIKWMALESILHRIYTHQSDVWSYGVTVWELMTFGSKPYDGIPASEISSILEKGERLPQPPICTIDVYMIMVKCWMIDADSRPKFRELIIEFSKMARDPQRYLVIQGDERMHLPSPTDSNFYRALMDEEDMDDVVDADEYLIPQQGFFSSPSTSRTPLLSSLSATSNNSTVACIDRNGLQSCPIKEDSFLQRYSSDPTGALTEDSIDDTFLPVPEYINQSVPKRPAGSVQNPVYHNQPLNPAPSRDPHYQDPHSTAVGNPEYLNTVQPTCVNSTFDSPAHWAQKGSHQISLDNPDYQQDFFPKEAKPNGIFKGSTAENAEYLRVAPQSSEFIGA

For the compound `COc1cc(Nc2ncnc(Nc3ccc4c(cnn4C)c3)n2)cc(OC)c1OC`, the IC50 (commonly the concentration needed to halve the response being measured) fell in the range of 0.4 to 2.4 µg/mL (≈ 0.982 to 5.89 µM).

Take `COCCOc1ccc(Nc2ncnc(Nc3ccc(C)c(O)c3)n2)cc1OC`: the IC50 was < 0.4 µg/mL. The same measure for `COC(=O)c1ccc(N(C)c2ncnc(Nc3ccc(OC)c(OC)c3)n2)cc1`: > 4.5 µg/mL; for `Fc1ccc(Nc2ncnc(Nc3ccc4cn[nH]c4c3)n2)cc1Cl`: < 0.4 µg/mL. In the case of `COc1cc(Nc2ncnc(-n3c(NC(C)=O)nc4ccccc43)n2)cc(OC)c1OC`, the IC50 was > 4.5 µg/mL. In the case of `COc1cc(Nc2ncnc(NC3CC3c3ccccc3)n2)cc(OC)c1OCCN1CCOCC1` (stereo unspecified) it was < 0.4 µg/mL. Turning to `COc1ccc(Nc2ncnc(Nc3cc(OC)c(OC)c(OC)c3)n2)cc1O`, the IC50 is < 0.4 µg/mL. In the case of `COc1cc(Nc2ncnc(-n3c(Nc4cccc(C(=O)O)c4)nc4ccccc43)n2)cc(OC)c1OC` it was 3.5 to 4.5 µg/mL (≈ 6.82 to 8.76 µM); in that of `COc1cc(Nc2ncnc(-n3c(NCc4ccc(N(C)C)cc4)nc4ccccc43)n2)cc(OC)c1OC`, 2.4 to 3.5 µg/mL (≈ 4.56 to 6.65 µM).

For `COc1cc(Nc2ncnc(-c3cccnc3NC3CCN(Cc4ccccc4)CC3)n2)cc(OC)c1OC`, the IC50 is > 4.5 µg/mL. `COc1cc(Nc2ncnc(-c3ccc(N4CCNCC4)nc3)n2)cc(OC)c1OC` displayed an IC50 of 3.5 to 4.5 µg/mL (≈ 8.26 to 10.6 µM). The same measure for `COc1cc(Nc2ncnc(-n3c(NCc4cccnc4)nc4ccccc43)n2)cc(OC)c1OC`: > 4.5 µg/mL.

In the case of `Nc1ncnc(-n2c(N)nc3ccccc32)n1`, the IC50 is > 4.5 µg/mL.

For the compound `COc1cc(Nc2ncnc(Nc3ccc(O)nc3)n2)cc(OC)c1OC`, the IC50 fell in the range of 0.4 to 2.4 µg/mL (≈ 1.08 to 6.48 µM). Regarding `COc1cc(Nc2ncnc(-n3c(Nc4cc(OC)c(OC)c(OC)c4)nc4ccccc43)n2)cc(OC)c1OC`, the IC50 was > 4.5 µg/mL. In the case of `CCc1ccc(Nc2ncnc(-n3c(N)nc4ccccc43)n2)cc1` it was 0.4 to 2.4 µg/mL (≈ 1.21 to 7.24 µM); in that of `O=[N+]([O-])c1cccc(Nc2ncnc(-c3cccs3)n2)c1`, > 4.5 µg/mL; in that of `Cc1ccc2c(c1)CCCN2c1ncnc(NCc2ccc(C(=O)O)cc2)n1`, > 4.5 µg/mL. In the case of `CCN(CC)CCOc1ccc(Nc2ncnc(Nc3cc(OC)c(OC)c(OC)c3)n2)cc1OC` it was 0.4 to 2.4 µg/mL (≈ 0.802 to 4.81 µM); in that of `COc1cc(Nc2ncnc(-n3c(Nc4ccc5cn[nH]c5c4)nc4ccccc43)n2)cc(OC)c1OC`, > 4.5 µg/mL. The same measure for `COc1cc(Nc2ncnc(-c3c(O)n(C)c4ccccc34)n2)cc(OC)c1OC`: > 4.5 µg/mL.

`COc1ccc(Nc2ncnc(-n3c(=O)[nH]c4ccccc43)n2)cc1OC` showed a half-maximal inhibitory concentration (IC50) of 2.4 to 3.5 µg/mL (≈ 6.59 to 9.61 µM). The same measure for `COc1cccc(-c2ncnc(Nc3cc(OC)c(OC)c(OC)c3)n2)c1`: 2.4 to 3.5 µg/mL (≈ 6.51 to 9.5 µM); for `O=c1[nH]c2ccccc2n1-c1ncnc(Nc2ccc(F)c(Cl)c2)n1`: > 4.5 µg/mL; for `COc1ccc(Nc2ncnc(Nc3ccc4c(c3)CCC4)n2)cc1OC`: 0.4 to 2.4 µg/mL (≈ 1.1 to 6.6 µM).

Compound `COc1cc(Nc2ncnc(Nc3cc(C(C)(C)C)[nH]n3)n2)cc(OC)c1OC` displayed an IC50 of 0.4 to 2.4 µg/mL (≈ 1 to 6.01 µM). In the case of `COc1ccc(Nc2ncnc(N(C)c3ccc(Cl)c(Cl)c3)n2)cc1OC` it was < 0.4 µg/mL. With `COc1ccc(CNc2ncnc(Nc3cc(-c4ccco4)n[nH]3)n2)cc1`, the IC50 is > 4.5 µg/mL.

With `Nc1ncnc(Nc2ccc(C3CCCCC3)cc2)n1`, the IC50 was > 4.5 µg/mL. `CCOC(=O)Cc1cn(-c2ncnc(Nc3cc(OC)c(OC)c(OC)c3)n2)c2ccccc12`: the IC50 is > 4.5 µg/mL. The same measure for `FC(F)C(F)(F)Oc1cccc(Nc2ncnc(-c3ccnc(N4CCCCC4)c3)n2)c1`: > 4.5 µg/mL; for `Nc1nc2ccccc2n1-c1ncnc(Nc2ccccc2)n1`: > 4.5 µg/mL; for `COc1ccc(Sc2ncnc(Nc3cc(OC)c(OC)c(OC)c3)n2)cc1`: > 4.5 µg/mL. Turning to `COc1cc(Nc2ncnc(N(Cc3ccccc3)c3nc4ccccc4[nH]3)n2)cc(OC)c1OC`, the IC50 was in the range of 2.4 to 3.5 µg/mL (≈ 4.96 to 7.24 µM). In the case of `COc1cc(Nc2ncnc(Nc3cccc(CN4CCN(C)CC4)c3)n2)cc(OC)c1OC` it was > 4.5 µg/mL. In the case of `C=CCN(c1cccc(Cl)c1)c1ncnc(Nc2cc(OC)cc(OC)c2)n1` it was < 0.4 µg/mL; in that of `COc1cc(Nc2ncnc(-c3cccnc3NCCN3CCCCC3)n2)cc(OC)c1OC`, > 4.5 µg/mL. In the case of `COc1cc(Nc2ncnc(-n3c(NCc4ccc(Cl)cc4)nc4ccccc43)n2)cc(OC)c1OC` it was > 4.5 µg/mL.

With `COc1ccc(Nc2ncnc(NCc3ncc(C(F)(F)F)cc3Cl)n2)cc1OC`, the IC50 was in the range of 2.4 to 3.5 µg/mL (≈ 5.44 to 7.94 µM).

Consider `C#Cc1cccc(Nc2ncnc(-n3c(=O)[nH]c4ccccc43)n2)c1`, for which the IC50 is 0.4 to 2.4 µg/mL (≈ 1.22 to 7.31 µM).

Turning to `COc1cc(Nc2ncnc(Nc3ccc(C(C)=O)cc3)n2)cc(OC)c1OC`, the IC50 was in the range of 2.4 to 3.5 µg/mL (≈ 6.07 to 8.85 µM). Compound `COc1cc(Nc2ncnc(-n3c(NC4CCc5ccccc54)nc4ccccc43)n2)cc(OC)c1OC` (stereo unspecified) displayed an IC50 of 2.4 to 3.5 µg/mL (≈ 4.71 to 6.87 µM). In the case of `c1coc(-c2cc(Nc3ncnc(Nc4nc[nH]n4)n3)n[nH]2)c1`, the IC50 was 0.4 to 2.4 µg/mL (≈ 1.29 to 7.73 µM). In the case of `Cc1ccc2c(c1)CCCN2c1ncnc(Nc2ccc3c(c2)C(=O)OC3)n1` it was < 0.4 µg/mL; in that of `COc1cc(Nc2ncnc(-n3c(NCc4ncc[nH]4)nc4ccccc43)n2)cc(OC)c1OC`, > 4.5 µg/mL. In the case of `c1ccc(Cn2ncc3cc(Nc4ncnc(NCc5ccco5)n4)ccc32)cc1` it was 0.4 to 2.4 µg/mL (≈ 1.01 to 6.04 µM). In the case of `COc1cc(Nc2ncnc(-c3cccnc3NC(C)C)n2)cc(OC)c1OC` it was > 4.5 µg/mL; in that of `COc1cc(Nc2ncnc(N3CCN(C(=O)OC(C)(C)C)CC3)n2)cc(OC)c1OC`, > 4.5 µg/mL; in that of `CN(c1cccc(Cl)c1)c1ncnc(Nc2ccc(OC(F)(F)F)cc2)n1`, 0.4 to 2.4 µg/mL (≈ 1.01 to 6.06 µM). `CN(c1cccc(Cl)c1)c1ncnc(Nc2ccc(CC(=O)O)cc2)n1`: the IC50 is < 0.4 µg/mL. Consider `COc1cc(Nc2ncnc(-n3c(N)nc4cc(Cl)ccc43)n2)cc(OC)c1OC.COc1cc(Nc2ncnc(-n3c(N)nc4ccc(Cl)cc43)n2)cc(OC)c1OC`, for which the IC50 is > 4.5 µg/mL.

Consider `COc1cc(Nc2ncnc(-n3c(NC(=O)c4ccccc4)nc4ccccc43)n2)cc(OC)c1OC`, for which the IC50 was > 4.5 µg/mL. The same measure for `CCCN(CC1CC1)c1ncnc(Nc2cc(OC)c(OC)c(OC)c2)n1`: 3.5 to 4.5 µg/mL (≈ 9.37 to 12 µM); for `COc1ccc(Nc2ncnc(N(C)c3ccccc3)n2)cc1OC`: < 0.4 µg/mL; for `FC(F)C(F)(F)Oc1cccc(Nc2ncnc(-c3cccs3)n2)c1`: > 4.5 µg/mL. The same measure for `COc1cc(Nc2ncnc(Nc3cccc4cccnc34)n2)cc(OC)c1OC`: > 4.5 µg/mL; for `COc1cc(Nc2ncnc(-n3ccnc3NCc3ccccc3)n2)cc(OC)c1OC`: > 4.5 µg/mL; for `COc1ccc([C@@H](C)Nc2nc3ccccc3n2-c2ncnc(Nc3cc(OC)c(OC)c(OC)c3)n2)cc1`: > 4.5 µg/mL.

For `COc1cc(Nc2ncnc(-n3c(N[C@@H](C)c4ccccc4)nc4ccccc43)n2)cc(OC)c1OC`, the IC50 lay in the range of 2.4 to 3.5 µg/mL (≈ 4.82 to 7.03 µM).

`CN(c1cccc(Cl)c1)c1ncnc(Nc2cccc(CNC(=O)O[C@@H]3CCOC3)c2)n1`: the half-inhibitory concentration (IC50) was < 0.4 µg/mL. With `COc1ccc(Nc2ncnc(N(C)c3ccc(F)cc3F)n2)cc1OC`, the IC50 is < 0.4 µg/mL. Turning to `COc1cc(Nc2ncnc(-n3c(NCc4ccccn4)nc4ccccc43)n2)cc(OC)c1OC`, the IC50 is > 4.5 µg/mL. Turning to `Cc1ccc2c(c1)CCCN2c1ncnc(Nc2cccc(Cc3nnn[nH]3)c2)n1`, the IC50 is < 0.4 µg/mL.

For the compound `COc1cc(Nc2ncnc(-c3cc4ccccc4s3)n2)cc(OC)c1OC`, the IC50 is > 4.5 µg/mL. In turn, `Nc1nc2ccccc2n1-c1ncnc(Nc2ccc(N3CCOCC3)cc2)n1` showed an IC50 of 3.5 to 4.5 µg/mL (≈ 9.01 to 11.6 µM). For the compound `COc1ccc(Nc2ncnc(Nc3ccccc3C)n2)cc1OC`, the IC50 is < 0.4 µg/mL.

For the origin of these results see the Kinase Knowledgebase extract (Sharma et al. 2016).
